As usually defined, the IC50 is the concentration that inhibits the measured activity by half.

This note sets out measurements from patent EP3478687B1 (Daewoong Pharmaceutical Co., Ltd., priority 2016, dated 2018).

Experiment [1] addresses T1, Recombinant purified human JAK3 (Homo sapiens, UniProt P52333).
T1 construct: purchased Promega V9441
T1 sequence (P52333 1-1124): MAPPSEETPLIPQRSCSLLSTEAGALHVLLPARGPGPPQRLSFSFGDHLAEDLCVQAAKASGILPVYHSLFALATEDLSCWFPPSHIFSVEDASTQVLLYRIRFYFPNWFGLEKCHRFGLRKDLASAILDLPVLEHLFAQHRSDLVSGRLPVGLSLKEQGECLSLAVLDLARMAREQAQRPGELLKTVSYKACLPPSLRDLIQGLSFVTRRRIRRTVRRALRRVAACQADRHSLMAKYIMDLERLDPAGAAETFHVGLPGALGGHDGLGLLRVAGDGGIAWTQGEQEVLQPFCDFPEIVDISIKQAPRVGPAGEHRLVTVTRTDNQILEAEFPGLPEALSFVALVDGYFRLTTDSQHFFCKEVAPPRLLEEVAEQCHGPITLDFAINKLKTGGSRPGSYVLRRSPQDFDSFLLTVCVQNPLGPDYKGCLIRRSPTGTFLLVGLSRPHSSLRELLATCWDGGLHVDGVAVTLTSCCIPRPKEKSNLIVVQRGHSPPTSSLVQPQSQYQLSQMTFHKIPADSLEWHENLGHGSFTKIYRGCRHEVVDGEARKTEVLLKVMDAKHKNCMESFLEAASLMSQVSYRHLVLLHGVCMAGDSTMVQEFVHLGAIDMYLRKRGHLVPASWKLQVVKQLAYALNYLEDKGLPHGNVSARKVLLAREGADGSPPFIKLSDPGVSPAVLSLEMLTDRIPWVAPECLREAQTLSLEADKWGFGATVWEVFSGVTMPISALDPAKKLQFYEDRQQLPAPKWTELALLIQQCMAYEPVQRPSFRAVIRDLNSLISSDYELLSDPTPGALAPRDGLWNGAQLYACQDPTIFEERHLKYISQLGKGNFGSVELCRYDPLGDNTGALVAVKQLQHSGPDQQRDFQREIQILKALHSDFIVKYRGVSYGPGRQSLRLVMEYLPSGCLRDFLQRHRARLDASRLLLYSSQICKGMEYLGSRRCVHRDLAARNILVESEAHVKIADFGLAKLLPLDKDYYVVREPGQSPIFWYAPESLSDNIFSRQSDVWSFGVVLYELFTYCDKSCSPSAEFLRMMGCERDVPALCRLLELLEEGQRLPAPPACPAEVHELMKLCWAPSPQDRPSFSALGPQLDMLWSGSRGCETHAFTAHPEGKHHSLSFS
Kind of experiment: JAK3 kinase inhibitory activity, ADP-Glo kinase assay (Promega V9441). The note with it: ATP 5 uM, 4 ng JAK3 per reaction, 1 hour 30 °C, chemiluminescence. The class given is biochemical. Summed up:
(§1)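 Recombinant human kinases in Tris pH 7.5 buffer with MgCl2, BSA and DTT (MnCl2 added for BTK), 4 ng JAK3 or 8 ng BTK per reaction. Poly(Glu4,Tyr1) 0.2 µg/µL with 5 µM (JAK3) or 10 µM (BTK) ATP, 1% DMSO, 1 h at 30 °C. ADP-Glo luminescence used to derive IC50.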
A general note: ADP-Glo turns the ADP formed in a reaction into a luminescent signal.

For experiment [2], the target named is T2, Recombinant purified human BTK (Homo sapiens, UniProt Q06187).
T2 construct: purchased Promega V9071
Kind of experiment: BTK kinase inhibitory activity, ADP-Glo kinase assay (Promega V9071). The experiment is classed as biochemical. The note with it: ATP 10 uM, 8 ng BTK per reaction, 1 hour 30 °C, chemiluminescence. The essentials: as §1

T2 sequence (Q06187 whole entry): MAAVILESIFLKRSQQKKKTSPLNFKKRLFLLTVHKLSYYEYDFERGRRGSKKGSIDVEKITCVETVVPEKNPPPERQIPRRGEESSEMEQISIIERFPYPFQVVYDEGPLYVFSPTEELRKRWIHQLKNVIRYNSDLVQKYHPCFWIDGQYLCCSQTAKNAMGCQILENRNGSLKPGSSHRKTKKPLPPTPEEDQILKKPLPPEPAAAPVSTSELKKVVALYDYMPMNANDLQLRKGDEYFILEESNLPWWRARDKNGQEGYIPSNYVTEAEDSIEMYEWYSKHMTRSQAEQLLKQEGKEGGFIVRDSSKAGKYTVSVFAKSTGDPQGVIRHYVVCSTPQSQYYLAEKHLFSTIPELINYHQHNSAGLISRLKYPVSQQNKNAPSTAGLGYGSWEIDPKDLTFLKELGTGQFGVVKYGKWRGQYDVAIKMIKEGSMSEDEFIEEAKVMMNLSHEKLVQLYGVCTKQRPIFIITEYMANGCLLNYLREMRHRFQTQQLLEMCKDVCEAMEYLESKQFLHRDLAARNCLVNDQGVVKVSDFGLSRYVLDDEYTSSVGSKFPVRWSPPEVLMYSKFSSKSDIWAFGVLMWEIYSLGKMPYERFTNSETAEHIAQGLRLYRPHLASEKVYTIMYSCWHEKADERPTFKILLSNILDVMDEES

For `CCn1cc(Nc2nc(N[C@@H]3CCCN(C(=O)/C(C#N)=C/C4CC4)C3)c3cn[nH]c3n2)cn1` [Example 175, (R,E)-3-cyclopropyl-2-(3-((6-((1-ethyl-1H-pyrazol-4-yl)amino)-1H-pyrazolo[3,4-d]pyrimidin-4-yl)amino)piperidine-1-carbonyl)acrylonitrile], the figures for the IC50 in experiment [1] and in experiment [2] were 14.9 nM and 1.4 nM, respectively.

With `CCn1cc(Nc2nc(S[C@@H]3CCCN(C(=O)/C(C#N)=C/C4CC4)C3)c3cn[nH]c3n2)cn1` [Example 176, (R,E)-3-cyclopropyl-2-(3-((6-((1-ethyl-1H-pyrazol-4-yl)amino)-1H-pyrazolo[3,4-d]pyrimidin-4-yl)thio)piperidine-1-carbonyl)acrylonitrile], the figures for the IC50 in experiment [1] and in experiment [2] were 42.1 nM and 3 nM, respectively.

As to `CCn1cc(Nc2nc(N[C@@H]3CCCN(C(=O)/C(C#N)=C/C4CC4)C3)c3c(Cl)c[nH]c3n2)cn1` [Example 177, (R,E)-2-(3-((5-chloro-2-((1-ethyl-1H-pyrazol-4-yl)amino)-7H-pyrrolo[2,3-d]pyrimidin-4-yl)amino)piperidine-1-carbonyl)-3-cyclopropylacrylonitrile], the IC50 in experiment [1] stood at 0.4 nM; in experiment [2], 1.2 nM.

Regarding `CCn1cc(Nc2nc(N[C@@H]3CCCN(C(=O)/C(C#N)=C/C(C)C)C3)c3c(Cl)c[nH]c3n2)cn1` [Example 178, (R,E)-2-(3-((5-chloro-2-((1-ethyl-1H-pyrazol-4-yl)amino)-7H-pyrrolo[2,3-d]pyrimidin-4-yl)amino)piperidine-1-carbonyl)-4-methylpent-2-enenitrile], the figures for the IC50 in experiment [1] and in experiment [2] were 0.5 nM and 0.9 nM, respectively.

For the compound `CCn1cc(Nc2nc(S[C@@H]3CCCN(C(=O)/C(C#N)=C/C4CC4)C3)c3c(Cl)c[nH]c3n2)cn1` [Example 179], the IC50 in experiment [1] was found to be 1.1 nM; in experiment [2] it was 8.3 nM.

Consider `CCn1cc(Nc2nc(S[C@@H]3CCCN(C(=O)/C(C#N)=C/C(C)C)C3)c3c(Cl)c[nH]c3n2)cn1` [Example 180, (R,E)-2-(3-((5-chloro-2-((1-ethyl-1H-pyrazol-4-yl)amino)-7H-pyrrolo[2,3-d]pyrimidin-4-yl)thio)piperidine-1-carbonyl)-4-methylpent-2-enenitrile], for which the IC50 came out at 1.5 nM in experiment [1] and 3.1 nM in experiment [2].

On to `CCn1cc(Nc2nc(S[C@@H]3CCCN(C(=O)/C(C#N)=C/C4CC4)C3)c3c(Cl)n[nH]c3n2)cn1` [Example 181], for which the results for the IC50 in experiment [1] and in experiment [2] were 30.2 nM and 2.2 nM, respectively.

`CCn1cc(Nc2nc(N[C@@H]3CCCN(C(=O)/C(C#N)=C/C4CC4)C3)c3c(F)c[nH]c3n2)cn1` [Example 182]: the IC50 amounted to 2.3 nM in experiment [1] and 2.1 nM in experiment [2].

Take `CCn1cc(Nc2nc(N[C@H]3CN(C(=O)CCl)CC[C@H]3C)c3c(Cl)n[nH]c3n2)cn1` [Example 183, 2-chloro-1-((3R,4R)-3-((3-chloro-6-((1-ethyl-1H-pyrazol-4-yl)amino)-1H-pyrazolo [3,4-d]pyrimidin-4-yl)amino)-4-methylpiperidin-1-yl)ethan-1-one]: the IC50 in experiment [1] is 0.8 nM; in experiment [2] it was 1.6 nM.

Regarding `C=CC(=O)N1CCC[C@@H](Nc2nc(Nc3cnn(CC(F)F)c3)nc3[nH]nc(C)c23)C1` [Example 184, (R)-1-(3-((6-((1-(2,2-difluoroethyl)-1H-pyrazol-4-yl)amino)-3-methyl-1H-pyrazolo[3,4-d]pyrimidin-4-yl)amino)piperidin-1-yl)prop-2-en-1-one], the IC50 came to 4.4 nM in experiment [1] and 1.4 nM in experiment [2].

As for `C=CC(=O)N1CCC[C@@H](Nc2nc(Nc3cnn(CC)c3)nc3[nH]nc(C)c23)C1` [Example 185, (R)-1-(3-((6-((1-ethyl-1H-pyrazol-4-yl)amino)-3-methyl-1H-pyrazolo [3,4-d]pyrimidin-4-yl)amino)piperidin-1-yl)prop-2-en-1-one], the IC50 in experiment [1] was determined as 15.1 nM; in experiment [2] it was 2.1 nM.

`C=CC(=O)N1CCC[C@@H](Nc2nc(Nc3cnn(CC(C)C)c3)nc3[nH]nc(C)c23)C1` [Example 186, (R)-1-(3-((6-((1-isobutyl-1H-pyrazol-4-yl)amino)-3-methyl-1H-pyrazolo [3,4-d]pyrimidin-4-yl)amino)piperidin-1-yl)prop-2-en-1-one]: the IC50 in experiment [1] worked out at 18 nM; in experiment [2], 1.6 nM.

For the compound `C=CC(=O)N1CCC[C@@H](Nc2nc(Nc3cnn(C(C)(C)C)c3)nc3[nH]nc(C)c23)C1` [Example 187, (R)-1-(3-((6-((1-(tert-butyl)-1H-pyrazol-4-yl)amino)-3-methyl-1H-pyrazolo [3,4-d]pyrimidin-4-yl)amino)piperidin-1-yl)prop-2-en-1-one], the IC50 in experiment [1] was 14.6 nM; in experiment [2], 1.8 nM.

Consider `C=CC(=O)N1CCC[C@@H](Nc2nc(Nc3cnn(C4CC4)c3)nc3[nH]nc(C)c23)C1` [Example 188, (R)-1-(3-((6-((1-cyclopropyl-1H-pyrazol-4-yl)amino)-3-methyl-1H-pyrazolo[3,4-d]pyrimidin-4-yl)amino)piperidin-1-yl)prop-2-en-1-one], for which the IC50 in experiment [1] came out at 23.5 nM; in experiment [2] it was 2.9 nM.

Regarding `C=CC(=O)N1CCC[C@@H](Nc2nc(Nc3cnn(CC)c3)nc3[nH]nc(SC)c23)C1` [Example 189, (R)-1-(3-((6-((1-ethyl-1H-pyrazol-4-yl)amino)-3-(methylthio)-1H-pyrazolo [3,4-d]pyrimidin-4-yl)amino)piperidin-1-yl)prop-2-en-1-one], the IC50 amounted to 3.4 nM in experiment [1] and 0.721 nM in experiment [2].

For the compound `C=CC(=O)N1CCC[C@@H](Nc2nc(Nc3cnn(CC(F)F)c3)nc3[nH]nc(SC)c23)C1` [Example 190, (R)-1-(3-((6-((1-(2,2-difluoroethyl)-1H-pyrazol-4-yl)amino)-3-(methylthio)-1H-pyrazolo[3,4-d]pyrimidin-4-yl)amino)piperidin-1-yl)prop-2-en-1-one], the IC50 in experiment [1] stood at 2 nM; in experiment [2], 0.76 nM.

For `C=CC(=O)N1CCC[C@@H](Nc2nc(Nc3cnn(C)c3)nc3[nH]nc(SC)c23)C1` [Example 191, (R)-1-(3-((6-((1-methyl-1H-pyrazol-4-yl)amino)-3-(methylthio)-1H-pyrazolo [3,4-d]pyrimidin-4-yl)amino)piperidin-1-yl)prop-2-en-1-one], the IC50 in experiment [1] turned out to be 4.2 nM; in experiment [2], 0.76 nM.

As for `C=CC(=O)N1CCC[C@@H](Nc2nc(Nc3cnn(C(C)(C)C)c3)nc3[nH]nc(SC)c23)C1` [Example 192, (R)-1-(3-((6-((1-(tert-butyl)-1H-pyrazol-4-yl)amino)-3-(methylthio)-1H-pyrazolo [3,4-d]pyrimidin-4-yl)amino)piperidin-1-yl)prop-2-en-1-one], the IC50 in experiment [1] stood at 3 nM; in experiment [2], 0.726 nM.

As to `C=CC(=O)N1CC[C@@H](F)[C@@H](Nc2nc(Nc3cnn(CC)c3)nc3[nH]nc(Cl)c23)C1` [Example 193, 1-((3S,4R)-3-((3-chloro-6-((1-ethyl-1H-pyrazol-4-yl)amino)-1H-pyrazolo[3,4-d]pyrimidin-4-yl)amino)-4-fluoropiperidin-1-yl)prop-2-en-1-one], the IC50 in experiment [1] is 0.5 nM; in experiment [2], 0.9 nM.
